Source: patent US20130183435A1, “LOW TEMPERATURE PLASMA COATING FOR ANTI-BIOFILM FORMATION” (priority 2012, published 2013)

Assays:
[1] = system: S. epidermidis RP62A biofilm; assay: Susceptibility of bacterial cells in biofilm to 6 μg/ml antibiotic; type: cell-based; conditions: for reduction of bacterial count in biofilm: 8 hours
Procedure: Susceptibility of bacterial cells in biofilm to antibiotics was studied with a protocol established previously with modification. SS and Ti wafers (1×1 cm) were sterilized, coated with human plasma, and placed into the wells of 24-well microplates. Overnight culture of S. epidermidis was diluted 1:200 into fresh THY medium with 0.5% glucose. Aliquots (1 ml) of the cell suspensions were seeded into each well containing wafers and incubated at 37° C. for 16 hours. The wafers were gently washed three times with PBS to remove non-adherent bacterial cells. Then fresh Mueller Hinton broth (MHB) with and without 6 μg/ml vancomycin or ciprofloxacin was added into the wells containing wafers and cultured at 37° C. for 8 hours. The wafers were washed four times with PBS and then put into tubes with PBS. The biofilms on wafers were detached and disaggregated with ultrasonic bath treatment. The number of bacterial cells was quantified using the spread plate technique. Response to antibiotic treatment of a treated sample was defined as the percentage of untreated samples calculated by CFU numbers. Triplicate of wafers were used in each experiments and four independent experiments were performed for vacomycin and three independent experiments were performed for ciprofloxacin.

S. epidermidis biofilm = assay: Antibiotic susceptibility assay of cells attached on wafers with different dose of ciprofloxacin; type: cell-based; conditions: for decrease of the number of bacteria recovered from biofilms / bacteria recovered: 128 μg/ml; for decrease of the number of bacteria recovered from biofilms: 48 hours
Procedure: Antibiotic susceptibility assay of S. epidermidis cells attached on wafers with different dose of antibiotics. Biofilm formation on the four groups of wafers in triplicate was performed as described in biofilm formation assay section. The wafers with biofilms were gently washed four times with PBS to remove non-adherent bacterial cells. Then fresh Mueller Hinton broth (MHB) with 0, 2, 8, 32, and 128 μg/ml ciprofloxacin (Sigma-Aldrich, St Louis, Mo.) was added into the wells containing wafers and cultured at 37° C. for 48 hours, with MHB medium with corresponding concentration of ciprofloxacin changed every 12 hours. The wafers were washed four times with PBS and bacteria numbers on the wafers were counted.

SMILES | reduction of bacterial count in biofilm ([1]; TMS coated SS wafer) | reduction of bacterial count in biofilm ([1]; TMS coated Ti wafer) [%] | response of bacterial cells to antibiotic treatment ([1]; uncoated wafers) | reduction of bacterial count in biofilm ([1]; uncoated SS wafer) [%] | reduction of bacterial count in biofilm ([1]; uncoated Ti wafer) [%] | number of bacteria, percent of bacteria on bare surfaces with neither TMS coating nor ciprofloxacin treatment (S. epidermidis biofilm; 8 μg/ml, TMS coated surfaces) | number of bacteria, percent of bacteria on TMS coated surfaces without ciprofloxacin treatment (S. epidermidis biofilm; 32 μg/ml, TMS coated surfaces) | decrease of the number of bacteria recovered from biofilms (S. epidermidis biofilm; uncoated SS surfaces) [%] | decrease of the number of bacteria recovered from biofilms (S. epidermidis biofilm; uncoated Ti surfaces) [%] | bacteria recovered (S. epidermidis biofilm; TMS coated SS surfaces) | bacteria recovered (S. epidermidis biofilm; TMS coated Ti surfaces) | MBC for biofilms (S. epidermidis biofilm; biofilms on TMS coated surfaces, MBC = 99.9% (3 log10 units) decrease) | MBC for bacteria in biofilms (S. epidermidis biofilm; biofilms on uncoated surfaces)
CN[C@H](CC(C)C)C(=O)N[C@H]1C(=O)N[C@@H](CC(N)=O)C(=O)N[C@H]2C(=O)N[C@H]3C(=O)N[C@H](C(=O)N[C@H](C(=O)O)c4cc(O)cc(O)c4-c4cc3ccc4O)[C@H](O)c3ccc(c(Cl)c3)Oc3cc2cc(c3O[C@@H]2O[C@H](CO)[C@@H](O)[C@H](O)[C@H]2O[C@H]2C[C@](C)(N)[C@H](O)[C@H](C)O2)Oc2ccc(cc2Cl)[C@H]1O [vacomycin, vancomycin] | about 83.8±4.3% | 91.9±1.6 | resistant |  |  |  |  |  |  |  |  |  | 
O=C(O)c1cn(C2CC2)c2cc(N3CCNCC3)c(F)cc2c1=O [ciprofloxacin] | 99.4±0.1% | 96.8±1.4 |  | 86±1.2 | 81.8±3.2 | less than 0.01% | less than 0.1% | 99.6±0.07 | 99.3±0.1 | 177±80 | 444±217 | less than 32 μg/ml | more than 128 μg/ml
